Results reported in patent US20110306638A1, “BENZISOXAZOLE PIPERIDINYL DERIVATIVES, PHARMACEUTICAL COMPOSITIONS COMPRISING THE DERIVATIVES AND THEIR USE” (NHWA PHARMA. CORPORATION, priority 2008, published 2011).
Marks after values point to notes of the source that are not given here.

Legend:
[1] = molecular target: T1, 5-HT reuptake by brain synapses (Rattus norvegicus, UniProt P31652); assay: [3H]5-HT reuptake test in rat brain synapses; assay type: biochemical
T1 construct: forehead cortex was obtained for [^3H]5-HT, [^3H]NA reuptake test; from tissue; host or cells: rat (SD) forebrain cortex synaptosomes
Experimental: The method was as follows:
Male SD rats were killed by cervical dislocation, heads were immediately cut and brains were obtained and put on ice, related brain tissues were dissected (forehead cortex was obtained for [^3H]5-HT, [^3H]NA reuptake test, corpus striatum was obtained for [^3H]DA reuptake).
After the sample was weighed, 10 folds (V/W) ice cold 0.32 mol/L sucrose solution was added.
According to [a. […] 5-HT was added and after incubation in water bath at 37° C. for 10 min, the reaction mixture was immediately taken out of the water bath and 2 ml ice cold 150 mmol/L Tris-HCl was added to terminate the reaction. The sample was collected on a round glass fiber filter by vacuum filtration and washed three times with 3 ml ice cold Tris-HCl buffer. The filter membrane was removed, dried in a far-infrared oven for 15 min, then transferred into a EP tube, in which 1.5 ml scintillation fluid was added, left overnight and detected by a scintillation counter. The test sample was not added into solvent controlled overall binding tube or non-specific binding tube. 50 μl solvent was added into the overall binding tube, and in [^3H] 5-HT reuptake test, 600 μmol/L cocaine was added into the non-specific binding tube.

[2] = test system: Kunming mice; assay: Acetic acid-induced abdominal writhing test in mice; assay type: in vivo
Experimental: Kunming mice, SPF KM mice purchased from […] SLAC LABORATORY ANIMAL CO. LTD and kept in normal environment.
The compounds were dissolved in water for injection at a concentration of 4 mg/ml, 2 mg/ml and 1 mg/ml and were given intragastrically to animals.
Three different doses (10, 20, and 40 mg/kg) were administered to the test groups.
Aspirin was used as a positive control and acetic acid writhing test was used.
30 mice (half male and half female) weighing 18-23 g were divided into five groups, including negative control group, positive control group, low dose group, medium dose group and high dose group:
Mice in test group received test drug (10 mg/kg, 20 mg/kg, 40 mg/kg) via intragastric administration. Negative control group received physiological saline (20 ml/kg) via oral administration. Positive control group received aspirin (200 mg/kg) via oral administration. One hour later, each group received 0.7% acetic acid 10 ml/kg intraperitoneally. Five minutes later, the number of writhes was counted within the subsequent 15 min period; inhibition percentage of writhing response in each test group was calculated by the following equation: […]

[3] = molecular target: opioid receptor subtype δ (Homo sapiens, UniProt P41143); assay: Competitive binding to opioid receptor subtype δ, [3H]Diprenorphine
Experimental: (§1) The respective test compounds were added to the sample tube (final concentration of 10^−5M), incubated at 37° C. for 30 min and placed in ice bath to terminate the reaction. The reaction mixture was filtered through GF/C (Whatman) glass fiber filter by vacuum filtration on a Millipore sample collector. The filter was washed three times with 50 mM Tris-HCl (pH7.4), each with 4 ml; dried and transferred into a 0.5 ml Eppendorf tube, in which 0.5 ml lipophilic scintillation fluid was added. Radioactivity was detected by a LS6500 scintillation counter. Each concentration had three duplicate test tubes and each separate test was repeated 3 to 4 times.
(§2) Specific binding CMP value for each sample tube=overall binding CPM value for each sample tube−CPM value of non-specific binding tube.
(§3) [Inhibition percentage of competitive binding between the test compound and different opioid receptor subtypes (%)=(100%−specific binding (CPM value)of sample tube/specific binding(CPM value)of solvent group×100%)]
Average was taken for each test drug from three duplicate tubes; each test was repeated two or more times. Data were presented as mean±SE and statistical comparison was made by ANOVA.

[4] = molecular target: opioid receptor subtype κ (Homo sapiens, UniProt P41145); assay: Competitive binding to opioid receptor subtype κ, [3H]Diprenorphine
Experimental: as §1, §2, §3
Average was taken for each test drug from three duplicate tubes; each test was repeated two or more times.

SMILES: N#Cc1ccc2ccn(CCCCN3CCC(c4noc5cc(F)ccc45)CC3)c2c1 [II-9, 1-(4-(4-(6-fluorobenzo[d]isoxazol-3-yl)piperidin-1-yl)butyl)-1H-indole-6-carbonitrile]
- inhibitory activity on 5-HT reuptake (in words) ([1]; at 10 μmol/L, compared with Dutoxetine): potent inhibitory activities
- inhibition at 10 µM ([1]; final concentration 10 umol/L, rat brain synapses, read-out: 5-HTU [3H] 5-HT reuptake inhibition percentage Mean): 105%
- Inhibition percentage of writhing response ([2]; 10 mg/kg intragastric administration): 100** %
- Inhibition percentage of writhing response ([2]; 20 mg/kg intragastric administration): 99.05* %
- Inhibition percentage of writhing response ([2]; 40 mg/kg intragastric administration): 100** %
- affinity to opioid receptor subtype δ (in words) [3]: no obvious affinity
- inhibition at 10 µM ([3]; tested concentration 10^−5 mol/L, read-out: δ inhibition percentage of competitive binding): 0%
- affinity to opioid receptor subtype κ (in words) [4]: no obvious affinity
- inhibition at 10 µM ([4]; tested concentration 10^−5 mol/L, read-out: κ inhibition percentage of competitive binding): 28.5 ± 1.3%
